# In patent publication US20110217202A1, “ACTIVE OXYGEN DISINFECTION SYSTEM AND USE THEREOF” (priority 2010, published 2011):
# Legend:
# [1] = test system: S. marcescens; test: Photosensitizer with or without H2O2 or PHMB, rate of kill, S. marcescens; format: cell-based
# Procedure: All solutions (testing and control) are then incubated for about 5 minutes at 37° C. in the dark in an orbital incubator prior to exposure to the relevant light conditions. […]
# (§1) After incubation overnight, the colony forming units at the dilution where they can best be counted are quantified and number of colony forming units per mL calculated.
# In all instances the bacterial challenge is at least 5×10^5 cfu/mL. SoftWear Saline (providing 0.003% H2O2), photosensitizer solutions are made up at double the concentration to be tested using the SoftWear Saline as the diluent. 2.5 mLs of this solution is then mixed with 2.5 mLs of bacteria to form the test solutions.
# In all instances the bacterial challenge is at least 5×10^5 cfu/mL. Solutions containing the photosensitizers and PHMB are made up separately at quadruple the concentration to be tested.
# [2] = test system: P. aeruginosa; test: Photosensitizer rate of kill under light exposure, P. aeruginosa; format: cell-based
# Procedure: P. aeruginosa is grown in nutrient broth for about 18 hours to bring the bacteria into the logarithmic growth phase prior to being spun down via centrifugation and the pellet resuspended in sterile phosphate buffered saline (PBS). The bacterial suspension is then diluted to obtain an OD of 0.9 at 540 nm. This stock bacterial solution is subsequently diluted 1 in 500 to obtain a test solution containing about 10^5-10^6 cfu/ml.
# A solution of one of the five photosensitizers is made at double the concentration to be tested.
# A testing solution (lens care solution) is prepared by adding 5 mL of a photosensitizer solution to 5 mL of the bacterial solution.
# Two control solutions are prepared by adding 5 mL of sterile PBS to 5 mL of the bacterial solution. One of the two control solutions is kept in the dark (i.e., Control Dark) and the other one is exposed to the same light conditions as the photosensitizer test solutions (i.e., Control Light).
# All solutions (testing and control) are then incubated for about 5 minutes at 37° C. in the dark in an orbital incubator prior to exposure to the relevant light conditions. The light source used provides broad spectrum visible light and the temperature is controlled using a fan.
# as §1
# All solutions are then incubated for about 5 minutes at 37° C. in the dark in an orbital incubator prior to exposure to the relevant light conditions.
# Two light sources are used to assess antibacterial activity of the range of photosensitizers. One is a broad spectrum light source which emits light across visible spectrum. […] The other light source used is a red LED, which emits light of a single wavelength at 630 nm.
# The red LED light source emits with a power of 27 mW/cm2. In both instances, the power is measured using an ILT-1400 A Radiometer/Photometer.
# as §1
# [3] = test system: C. albicans; test: Photosensitizer with PHMB, rate of kill, C. albicans; format: cell-based; conditions: 10 μg/mL with 0.00005% PHMB; LED 630 nm; one hour; about 10^7 cfu/ml
# Procedure: All materials used and the method used to determine the rate of bacterial kill are described in Example 1 as was the method. In all instances the bacterial challenge is at least 5×10^5 cfu/mL. Solutions containing the photosensitizers and PHMB are made up separately at quadruple the concentration to be tested. 1.25 mLs of each solution is then added to 2.5 mLs of bacteria suspension to render the correct concentration to be tested.
# Where a testing solution contains 10 μg/mL TMPyP and 0.00005% PHMB, a 5 Log reduction in bacterial viability against about 10^7 cfu/ml C. albicans is observed after one hour of light exposure to a LED (630 nm).
# [4] = dissociation constant of the dibasic compound; cited from earlier work
# [5] = 5 μg/mL, red light/LED 630 nm, one hour, about 10^5 cfu/ml
# [6] = 10 μg/mL, broad spectrum light source, about 45 minutes, about 10^5 cfu/ml
compound,measurement,setting,value
"CN(C)c1ccc2nc3ccc(=[N+](C)C)cc-3sc2c1 [MB, Methylene Blue]",Log reduction in bacterial viability,"[1]; 20 μg/mL, free of H2O2, red LED 630 nm, one hour, about 10^5 cfu/ml",no reduction in bacterial viability
"O=C1OC2(c3cc(I)c(O)c(I)c3Oc3c2cc(I)c(O)c3I)c2c(Cl)c(Cl)c(Cl)c(Cl)c21 [RB, Rose Bengal]",Log reduction in bacterial viability,"[2]; about 250 μg/mL, broad spectrum visible light, 30 minutes, about 10^5 cfu/ml",5-6 Log
same,Log reduction in bacterial viability,"[1]; 10 μg/mL with 0.00005% PHMB, LED 630 nm, 15 minutes, about 10^5 cfu/ml",2 Log
same,further reduction in bacterial viability on additional light exposure,"[1]; 10 μg/mL with 0.00005% PHMB, LED 630 nm, additional light exposure up to one hour",does not reduce bacterial viability
same,Log reduction in bacterial viability,"[1]; 10 μg/mL with 0.003% H2O2, LED 630 nm, about 10^5 cfu/ml",no reduction in bacterial viability
same,Log reduction in bacterial viability,"[1]; 10 μg/mL, free of H2O2 or PHMB, LED 630 nm, about 10^5 cfu/ml",no reduction in bacterial viability
"Cc1cc2nc3ccc(N(C)C)cc3[s+]c2cc1N.[Cl-] [TBO, Toluidine Blue O]",Log reduction in bacterial viability,"[2]; 5 μg/mL, broad spectrum light source, about 30 minutes, about 10^5 cfu/ml",5-6 Log
same,Log reduction in bacterial viability,[2]; [5],5-6 Log
same,Log reduction in bacterial viability,[2]; [6],5-6 Log
same,Log reduction in bacterial viability,"[2]; 50 μg/mL, broad spectrum light source, between 30 to 45 minutes, about 10^5 cfu/ml",3 Log
same,reduction in bacterial viability,"[2]; 250 μg/mL, broad spectrum visible light, time not stated, about 10^5 cfu/ml",no reduction in bacterial viability
same,Rate of kill (Log reduction in bacterial viability),"[2]; 375 μg/mL, broad spectrum visible light, 30 minutes light exposure, about 10^5 cfu/ml",5-6 Log
same,Time of Light Exposure,"[2]; 375 μg/mL, broad spectrum visible light, time for the stated rate of kill",30 min
same,Rate of kill (Log reduction in bacterial viability),"[2]; 500 μg/mL, broad spectrum visible light, 15 minutes light exposure, about 10^5 cfu/ml",5-6 Log
same,Time of Light Exposure,"[2]; 500 μg/mL, broad spectrum visible light, time for the stated rate of kill (Table 2)",15 min
same,Log reduction in bacterial viability,"[1]; 0.625 μg/mL with 0.00005% PHMB, LED 630 nm, about 15 minutes, about 10^5 cfu/ml",3 Log
same,Log reduction in bacterial viability,"[1]; 0.625 μg/mL with 0.00005% PHMB, LED 630 nm, about 30 minutes, about 10^5 cfu/ml",5-6 Log
same,Log reduction in bacterial viability,"[1]; 1.25 μg/mL with 0.00005% PHMB, red LED 630 nm, about 15 minutes, about 10^5 cfu/ml",3 Log
same,Log reduction in bacterial viability,"[1]; 1.25 μg/mL with 0.00005% PHMB, red LED 630 nm, about 45 minutes, about 10^5 cfu/ml",5-6 Log
same,Log reduction in bacterial viability,"[1]; 2.5 μg/mL with 0.00005% PHMB, red LED 630 nm, about 30 minutes, about 10^5 cfu/ml",5-6 Log
same,Log reduction in bacterial viability,"[1]; 2.5 μg/mL with 0.0005% PHMB, red LED 630 nm, about 15 minutes, about 10^5 cfu/ml",5-6 Log
same,Log reduction in bacterial viability,"[1]; 2.5 μg/mL with 0.003% H2O2, red LED 630 nm, 30 minutes, about 10^5 cfu/ml",5-6 Log
same,Log reduction in bacterial viability,"[1]; 5 μg/mL only, free of H2O2, red LED 630 nm, 45 minutes",5-6 Log
"C[n+]1ccc(-c2c3nc(c(-c4cc[n+](C)cc4)c4ccc([nH]4)c(-c4cc[n+](C)cc4)c4nc(c(-c5cc[n+](C)cc5)c5ccc2[nH]5)C=C4)C=C3)cc1.Cc1ccc(S(=O)(=O)[O-])cc1.Cc1ccc(S(=O)(=O)[O-])cc1.Cc1ccc(S(=O)(=O)[O-])cc1.Cc1ccc(S(=O)(=O)[O-])cc1 [TMPyP, tetra(N-methyl-4-pyridyl)porphine tetratosylate]",Log reduction in bacterial viability,[3],5 Log
same,Log reduction in bacterial viability,"[2]; 5 μg/mL, broad spectrum light source, one hour, about 10^5 cfu/ml",2 Log
same,Log reduction in bacterial viability,"[2]; 5 μg/mL, broad spectrum light source, two hours, about 10^5 cfu/ml",5-6 Log
same,Log reduction in bacterial viability,[2]; [5],2 Log
same,Log reduction in bacterial viability,[2]; [6],5-6 Log
same,Log reduction in bacterial viability,"[2]; 10 μg/mL, red LED 630 nm, about 45 minutes, about 10^5 cfu/ml",5-6 Log
same,Rate of kill (Log reduction in bacterial viability),"[2]; 50 μg/mL, broad spectrum visible light, 45 minutes light exposure, about 10^5 cfu/ml",5-6 Log
same,Time of Light Exposure,"[2]; 50 μg/mL, broad spectrum visible light, time for the stated rate of kill",45 min
same,Rate of kill (Log reduction in bacterial viability),"[2]; 250 μg/mL, broad spectrum visible light, 45 minutes light exposure, about 10^5 cfu/ml",5-6 Log
same,Time of Light Exposure,"[2]; 250 μg/mL, broad spectrum visible light, time for the stated rate of kill",45 min
same,Rate of kill (Log reduction in bacterial viability),"[2]; 500 μg/mL, broad spectrum visible light, 30 minutes light exposure, about 10^5 cfu/ml",5-6 Log
same,Time of Light Exposure,"[2]; 500 μg/mL, broad spectrum visible light, time for the stated rate of kill (Table 1)",30 min
same,Log reduction in bacterial viability,"[1]; 10 μg/mL with 0.00005% PHMB, red LED 630 nm, about 45 minutes, about 10^5 cfu/ml",3 Log
same,Log reduction in bacterial viability,"[1]; 10 μg/mL with 0.0005% PHMB, red LED 630 nm, about 15 minutes, about 10^5 cfu/ml",5-6 Log
same,Log reduction in bacterial viability,"[1]; 10 μg/mL with 0.003% H2O2, red LED 630 nm, one hour, about 10^5 cfu/ml",about 3 Log
"Cl.Cl.O=S(=O)(O)c1ccc(-c2c3nc(c(-c4ccc(S(=O)(=O)O)cc4)c4ccc([nH]4)c(-c4ccc(S(=O)(=O)O)cc4)c4nc(c(-c5ccc(S(=O)(=O)O)cc5)c5ccc2[nH]5)C=C4)C=C3)cc1 [TSPP, meso-tetra(4-sulfonatophenyl)porphine dihydrochloride]",biocidal activity,"[2]; about 1 mg/mL, broad spectrum visible light, about 10^5 cfu/ml",no significant biocidal activity
"OCC(CO)(CO)NCCCNC(CO)(CO)CO [bis-TRIS-propane, 1,3-bis(tris[hydroxymethyl]methylamino)propane]",pKa1,[4],6.8
same,pKa2,[4],9.5
polyhexamethylene biguanide [PHMB],Log reduction in bacterial viability,"[1]; 0.00005% PHMB without any sensitizer, one hour, about 10^5 cfu/ml",1 Log
